Our source for the EC50 and IC50 values is ChEMBL document CHEMBL1150825, “Anti-HIV prenylated flavonoids from Monotes africanus” (J Nat Prod, 2001).

The subject of the assay is Human immunodeficiency virus. The assay is described as follows: Antiviral activity against HIV assessed as protection against virus-induced cytopathicity by cell based XTT assay. The format is functional, organism-based.
Where [1] appears, read: Human immunodeficiency virus 1, read-out: EC50.

What is called EC50 is the concentration giving half of the maximal effect. Broadly, the IC50 is the concentration that gives 50% inhibition.

In brackets after ≈: the same amount, converted by molar mass.

For `C=CC(C)(C)c1c(O)cc2c(c1O)C(=O)C[C@@H](c1ccc(O)cc1)O2`, the half-maximal effective concentration (EC50) result is reported as “Not Active”. Regarding `CC(C)=CCc1c(O)c(CC=C(C)C)c2c(c1O)C(=O)[C@H](O)[C@@H](c1ccc(O)cc1)O2`, under “Human immunodeficiency virus 1”, the IC50 worked out at 4.7 µg/mL (≈ 11.1 µM). The EC50 under setting [1] came to 2.1 µg/mL (≈ 4.95 µM). Taken in the same sequence, the figures for `CC(C)=CCc1c(O)c(CC=C(C)C)c2oc(-c3ccc(O)cc3)c(O)c(=O)c2c1O` were 5.8 µg/mL (≈ 13.7 µM) and 2.4 µg/mL (≈ 5.68 µM). Consider `CC(C)=CCC/C(C)=C/Cc1c(O)cc2c(c1O)C(=O)[C@H](O)[C@@H](c1ccc(O)cc1)O2` [BONANNIOL A], for which the EC50 result is reported as “Not Active”. Regarding `CC(C)=CCc1c(O)c(CC=C(C)C)c2c(c1O)C(=O)C[C@@H](c1ccc(O)cc1)O2` [LONCHOCARPOL A], under “Human immunodeficiency virus 1”, the half-inhibitory concentration (IC50) turned out to be 2.7 µg/mL (≈ 6.61 µM). Besides, the concentration giving a half-maximal response (EC50) under setting [1] worked out at 1.3 µg/mL (≈ 3.18 µM). As to `CC(C)=CCC/C(C)=C/Cc1c(O)cc2oc(-c3ccc(O)cc3)c(O)c(=O)c2c1O` [MACARANGIN], the concentration for a half-maximal effect (EC50) result was “Not Active”.
